According to patent US6903130B1, “Pyrrolidineacetamide derivative alone or in combination for treatment of cns disorders” (UCB S.A., priority 1999, dated 2005):
Marks after values point to notes of the source that are not given here.

Key:
[1] = test system: diabetic rats (streptozocin-induced diabetic neuropathy); test: Randall and Selitto test, mechanical hyperalgesia in streptozotocin diabetic rats; format: in vivo, rat
Description: In order to study the activity of levetiracetam with respect to chronic or neuropathic pain, the Applicant carried out a series of experiments based on the Randall test “A method for measurement of analgesic activity on inflamed tissue; Arch. Int. pharmacodyn., 1957, CXI, No4. P 409-419”. By virtue of this protocol, it was possible to determine the ability of levetiracetam to correct hyperalgesia secondary to induction of a neuropathic problem of metabolic origin in a rodent.
The diabetic neuropathy thereby induced allowed the correction of the hyperalgesia caused by the use of levetiracetam to be measured.
The animals used for these experiments were male Sprague-Dawley rats (Charles River, France), weighing 250-280 grams (g), which had undergone induction of diabetes one week after receipt. Male Sprague-Dawley rats (200-220 g) received one interperitoneal injection of streptozocin (75 mg/kg, i.p.) (Zanosar, Upjohn, France) dissolved in distilled water. Hyperglycaemia was confirmed one week after induction by determining the quantity of blood glucose (caudal puncture) using a Dextrostix reactive strip (Ames) read using a calorimeter (Ames Division, Miles Laboratoires, France). Animals with more than 14 millimoles (mM) were considered to be diabetic. The pain thresholds were determined 3 weeks after induction of diabetes.
This model was used in accordance with the description in COURTEIX et al., “Streptozocin-induced diabetic rats. Behavioural evidence for a model of chronic pain” Pain (1993), vol. 53, p81-88. The study was performed using the following compounds: • […]: (Laboratories UCB), dissolved in distilled water. • CARBAMAZEPINE: (Sigma), dissolved in hydroxy propel methylcellulose.
As has already been mentioned above, the test explained below was performed to stimulate a reaction in the animal with a mechanical nociceptive stimulus to a hind paw. An increasing pressure was applied using an analgesia meter (Ugo Basile, type 7200), until a cry was emitted which was considered to be the pain threshold, expressed in grams.
After determining the base thresholds, the animals received the study treatments (vehicle, levetiracetam, 17, 54, 95.2 and 120 mg/kg, carbamazepine, 10 and 30 mg/kg) administered intraperitoneally (i.p.) using the equal block method to avoid any chronobiological influence. The effects of different treatments were thus determined during the same time period. The reaction thresholds were measured 15, 30, 45, 60, 90, 120 and 180 minutes (min) after administration. All of the experiments were performed blind with 8 different animals per treatment.
The results are expressed as means±standard error of mean (S.E.M.).
The dose which could overcome 50% of the hyperalgesia induced by diabetes was calculated as the “anti-hyperalgesic dose effective 50”.
Statistical comparison was carried out by means of a two-way analysis of variance followed by Fischer's PLSD multiple comparison test to analyze the temporal effect.

[2] = test system: chloride fluxes induced by muscimol; settings: cited from earlier work
[3] = test system: GABA levels, GABA transaminase and glutamic decarboxylase; settings: mouse brain; cited from earlier work
[4] = test system: healthy volunteers; test: Clinical studies, tolerability in healthy volunteers; format: in vivo, human
[5] = Plasma and brain levels after oral dosing in sound-sensitive mice; settings: male, genetically sound-sensitive, derived from a DBA strain, mouse, brain, po, 166.2 mg/kg
Description: Male genetically sound-sensitive mice (17-30 g; N=10), derived from a DBA strain originally selected by Dr Lehmann of the Laboratory of Acoustic Physiology (Paris) and bred in the UCB Pharma Sector husbandry unit since 1978, were submitted to the induction of audiogenic seizures. Levetiracetam (5.4 mg/kg) and sodium valproate (166.2 mg/kg) were administered orally, alone or in combination, 60 minutes before the induction of audiogenic seizures. For testing audiogenic seizure, the mice were placed in the cages, one mouse per cage, in the sound-attenuated chamber. After a period of habituation of 30 seconds, the acoustic stimulus (90 dB, 10-20 kHz) was delivered for 30 seconds via the loud speakers. During this interval, the mice were observed and the presence of the 3 phases of the seizure activity, namely wild running, clonic and tonic convulsions, was recorded.
In all animals, blood samples were collected immediately after the seizure test (I h after dosing) by cardiac puncture under light carbon dioxide anesthesia, into heparinised microtubes. […] Levetiracetam was measured in plasma and brain samples by validated gas chromatography assay with mass detection. With sodium valproate, fluorescence polarization immunoassays were used.
The mean value plus standard deviation was calculated for plasma and brain concentrations of valproate and levetiracetam, and for the brain/plasma ratio. […]

## CC[C@@H](C(N)=O)N1CCCC1=O [Levetiracetam, (S)-(−)α-ethyl-2-oxo-1-pyrrolidineacetamide]
[1]; dose overcoming 50% of the hyperalgesia induced by diabetes, i.p.
  anti-hyperalgesic effective dose 50: 35.1 ± 1.8 mg/kg
[1]; i.p., diabetic rats
  Effect on diabetic hyperalgesia (in words): a dose of 120 mg/kg of levetiracetam caused complete correction of hyperalgesia
[1]; levetiracetam 17 mg/kg i.p. group, before diabetes (baseline), mean (SEM)
  vocalization threshold: 282.2 (5.48) g
[1]; levetiracetam 17 mg/kg i.p., 15 min after injection
  vocalization threshold: 211.9 (7.19)* g
[1]; levetiracetam 17 mg/kg i.p., 30 min after injection
  vocalization threshold: 206.3 (10.12)* g
[1]; levetiracetam 17 mg/kg i.p., 45 min after injection
  vocalization threshold: 193.1 (7.19) g
[1]; levetiracetam 17 mg/kg i.p., 60 min after injection
  vocalization threshold: 185.6 (4.86) g
[1]; levetiracetam 17 mg/kg i.p., 90 min after injection
  vocalization threshold: 178.1 (3.40) g
[1]; levetiracetam 17 mg/kg i.p., 120 min after injection
  vocalization threshold: 180.0 (2.83) g
[1]; levetiracetam 17 mg/kg i.p., 180 min after injection
  vocalization threshold: 176.3 (2.45) g
[1]; levetiracetam 17 mg/kg i.p., after diabetes, 0 min (base threshold)
  vocalization threshold: 181.9 (3.09) g
[1]; levetiracetam 54 mg/kg i.p. group, before diabetes (baseline), mean (SEM)
  vocalization threshold: 296.3 (10.12) g
[1]; levetiracetam 54 mg/kg i.p., 15 min after injection
  vocalization threshold: 238.1 g
[1]; levetiracetam 54 mg/kg i.p., 30 min after injection
  vocalization threshold: 243.8 (15.97)* g
[1]; levetiracetam 54 mg/kg i.p., 45 min after injection
  vocalization threshold: 230.6 g
[1]; levetiracetam 54 mg/kg i.p., 60 min after injection
  vocalization threshold: 189.4 (13.87) g
[1]; levetiracetam 54 mg/kg i.p., 90 min after injection
  vocalization threshold: 176.3 (8.39) g
[1]; levetiracetam 54 mg/kg i.p., 120 min after injection
  vocalization threshold: 176.3 (6.80) g
[1]; levetiracetam 54 mg/kg i.p., 180 min after injection
  vocalization threshold: 176.3 (6.80) g
[1]; levetiracetam 54 mg/kg i.p., after diabetes, 0 min (base threshold)
  vocalization threshold: 180.0 (5.30) g
[1]; levetiracetam 95.2 mg/kg i.p. group, before diabetes (baseline), mean (SEM)
  vocalization threshold: 306.6 (11.73) g
[1]; levetiracetam 95.2 mg/kg i.p., 15 min after injection
  vocalization threshold: 264.4 g
[1]; levetiracetam 95.2 mg/kg i.p., 30 min after injection
  vocalization threshold: 283.1 (24.62)* g
[1]; levetiracetam 95.2 mg/kg i.p., 45 min after injection
  vocalization threshold: 234.4 g
[1]; levetiracetam 95.2 mg/kg i.p., 60 min after injection
  vocalization threshold: 180.0 (12.36) g
[1]; levetiracetam 95.2 mg/kg i.p., 90 min after injection
  vocalization threshold: 180.0 (8.02) g
[1]; levetiracetam 95.2 mg/kg i.p., 120 min after injection
  vocalization threshold: 159.4 (3.95) g
[1]; levetiracetam 95.2 mg/kg i.p., 180 min after injection
  vocalization threshold: 163.1 (4.43) g
[1]; levetiracetam 95.2 mg/kg i.p., after diabetes, 0 min (base threshold)
  vocalization threshold: 169.7 (6.00) g
[1]; levetiracetam 120 mg/kg i.p. group, before diabetes (baseline), mean (SEM)
  vocalization threshold: 309.4 (15.25) g
[1]; levetiracetam 120 mg/kg i.p., 15 min after injection
  vocalization threshold: 331.9 g
[1]; levetiracetam 120 mg/kg i.p., 30 min after injection
  vocalization threshold: 315.0 (30.00)* g
[1]; levetiracetam 120 mg/kg i.p., 45 min after injection
  vocalization threshold: 262.5 g
[1]; levetiracetam 120 mg/kg i.p., 60 min after injection
  vocalization threshold: 213.8 (13.52)* g
[1]; levetiracetam 120 mg/kg i.p., 90 min after injection
  vocalization threshold: 176.3 (7.36) g
[1]; levetiracetam 120 mg/kg i.p., 120 min after injection
  vocalization threshold: 174.4 (6.30) g
[1]; levetiracetam 120 mg/kg i.p., 180 min after injection
  vocalization threshold: 168.8 (4.70) g
[1]; levetiracetam 120 mg/kg i.p., after diabetes, 0 min (base threshold)
  vocalization threshold: 161.3 (7.23) g
[2]
  modulation of chloride fluxes induced by muscimol: did not modulate
[3]
  effect on GABA levels and the enzymatic activities of GABA transaminase and glutamic decarboxylase: lack of effect
[4]; repeated doses 1500 mg/day for 14 days
  tolerability (in words): well tolerated
[4]; single dose
  tolerability (in words): well tolerated

## CCCC(CCC)C(=O)[O-].[Na+] [Valproate, sodium valproate]
[5]
  Kp at 1 h: 0.13 ± 0.02
